Measurements reported in US20130253015A1, “Cyclodextrin-Based Microemulsions, and Dermatological Uses Thereof” (PRECISION DERMATOLOGY, INC., priority 2012, published 2013).

Assays:
[1] = Solubility/dispersibility of retinol in Labrasol-HPGCD-water microemulsion systems; format: physicochemical
Excerpt: Drug used: 1. Solid Retinol (98%) from Sigma, 2.
Cyclodextrin used: hydroxypropyl-X-cyclodextrin (X=alpha, beta, or gamma).

[2] = cited from earlier work

amount of retinol that can be incorporated into cyclodextrin-based microemulsions ([1]; cyclodextrin-based microemulsions of the invention): greater than 1.0 wt %
miscibility in Labrasol-HPGCD-water microemulsion system ([1]; final retinol concentration 1.2%, clear transparent system (FIG. 4(b), 4(c))): complete miscibility
SMILES: CC1=C(/C=C/C(C)=C/C=C/C(C)=C/CO)C(C)(C)CCC1 [solid retinol, Retinol]
miscibility in water [2]: immiscible in water
